Assay results: ChEMBL document CHEMBL1681651, “A broad spectrum anticancer nucleoside with selective toxicity against human colon cells in vitro” (2011)

What was measured:
Format in all cases: functional
[1] = tested on: OVCAR-3; assay: Growth inhibition of human OVCAR3 cells assessed as cell growth at 0.1 uM after 48 hrs by SRB assay; conditions: OVCAR-3, 48 h, read-out: Activity
[2] = tested on: NCI-H522; assay: Growth inhibition of human NCI-H522 cells assessed as cell growth at 1 mM after 48 hrs by SRB assay; conditions: NCI-H522, 48 h, read-out: Activity
[3] = tested on: SF-295; assay: Growth inhibition of human SF295 cells assessed as cell growth at 100 uM after 48 hrs by SRB assay; conditions: SF-295, 48 h, read-out: Activity
[4] = tested on: EKVX; assay: Growth inhibition of human EKVX cells assessed as cell growth at 100 uM after 48 hrs by SRB assay; conditions: read-out: Activity
[5] = tested on: HOP-92; assay: Growth inhibition of human HOP92 cells assessed as cell growth at 1 mM after 48 hrs by SRB assay; conditions: HOP-92, 48 h, read-out: Activity
[6] = tested on: BT-549; assay: Growth inhibition of human BT549 cells assessed as cell growth at 10 uM after 48 hrs by SRB assay; conditions: BT-549, 48 h, read-out: Activity
[7] = tested on: CCRF-CEM; assay: Growth inhibition of human CCRF-CEM cells assessed as cell growth at 10 uM after 48 hrs by SRB assay; conditions: read-out: Activity
[8] = tested on: HOP-92; assay: Growth inhibition of human HOP92 cells after 48 hrs by […] growth inhibition assay; conditions: HOP-92, 48 h
[9] = tested on: SN12C; assay: Growth inhibition of human SN12C cells after 48 hrs by […] growth inhibition assay
[10] = tested on: U-251; assay: Growth inhibition of human U251 cells assessed as cell growth at 1 uM after 48 hrs by SRB assay; conditions: U-251, 48 h, read-out: Activity
[11] = tested on: 786-0; assay: Growth inhibition of human 786-0 cells assessed as cell growth at 0.1 uM after 48 hrs by SRB assay; conditions: 786-0, 48 h, read-out: Activity
[12] = tested on: HCC 2998; assay: Growth inhibition of human HCC2998 cells assessed as cell growth at 1 uM after 48 hrs by SRB assay; conditions: HCC 2998, 48 h, read-out: Activity
[13] = tested on: CAKI-1; assay: Growth inhibition of human Caki1 cells assessed as cell growth at 1 uM after 48 hrs by SRB assay; conditions: CAKI-1, 48 h, read-out: Activity
[14] = tested on: EKVX; assay: Growth inhibition of human EKVX cells assessed as cell growth at 10 uM after 48 hrs by SRB assay; conditions: read-out: Activity
[15] = tested on: SF-539; assay: Growth inhibition of human SF539 cells after 48 hrs by […] growth inhibition assay; conditions: SF-539, 48 h
[16] = tested on: DU-145; assay: Growth inhibition of human DU145 cells after 48 hrs by […] growth inhibition assay; conditions: DU-145, 48 h
[17] = tested on: HT-29; assay: Growth inhibition of human HT-29 cells assessed as cell growth at 100 uM after 48 hrs by SRB assay; conditions: HT-29, 48 h, read-out: Activity
[18] = tested on: U-251; assay: Growth inhibition of human U251 cells after 48 hrs by […] growth inhibition assay; conditions: U-251, 48 h
[19] = tested on: COLO 205; assay: Growth inhibition of human COLO205 cells assessed as cell growth at 0.1 uM after 48 hrs by SRB assay; conditions: COLO 205, 48 h, read-out: Activity
[20] = tested on: SNB-19; assay: Growth inhibition of human SNB19 cells after 48 hrs by […] growth inhibition assay; conditions: SNB-19, 48 h
[21] = tested on: SN12C; assay: Growth inhibition of human SN12C cells assessed as cell growth at 10 uM after 48 hrs by SRB assay; conditions: read-out: Activity
[22] = tested on: LOX IMVI; assay: Growth inhibition of human LOXIMVI cells assessed as cell growth at 0.1 uM after 48 hrs by SRB assay; conditions: read-out: Activity
[23] = tested on: KM12; assay: Growth inhibition of human KM12 cells assessed as cell growth at 100 uM after 48 hrs by SRB assay; conditions: KM12, 48 h, read-out: Activity
[24] = tested on: ACHN; assay: Growth inhibition of human ACHN cells assessed as cell growth at 0.1 uM after 48 hrs by SRB assay; conditions: read-out: Activity
[25] = tested on: IGROV-1; assay: Growth inhibition of human IGROV1 cells assessed as cell growth at 10 uM after 48 hrs by SRB assay; conditions: IGROV-1, 48 h, read-out: Activity
[26] = tested on: MDA-MB-435; assay: Growth inhibition of human MDA-MB-435 cells assessed as cell growth at 0.1 uM after 48 hrs by SRB assay; conditions: MDA-MB-435, 48 h, read-out: Activity
[27] = tested on: T47D; assay: Growth inhibition of human T47D cells assessed as cell growth at 1 uM after 48 hrs by SRB assay; conditions: read-out: Activity
[28] = tested on: PC-3; assay: Growth inhibition of human PC3 cells after 48 hrs by […] growth inhibition assay; conditions: PC-3, 48 h
[29] = tested on: DU-145; assay: Growth inhibition of human DU145 cells assessed as cell growth at 100 uM after 48 hrs by SRB assay; conditions: DU-145, 48 h, read-out: Activity
[30] = tested on: UACC-62; assay: Growth inhibition of human UACC62 cells assessed as cell growth at 1 uM after 48 hrs by SRB assay; conditions: UACC-62, 48 h, read-out: Activity
[31] = tested on: NCI-H322M; assay: Growth inhibition of human NCI-H322M cells assessed as cell growth at 0.1 uM after 48 hrs by SRB assay; conditions: read-out: Activity
[32] = tested on: HCT-116; assay: Growth inhibition of human HCT116 cells assessed as cell growth at 1 uM after 48 hrs by SRB assay; conditions: HCT-116, 48 h, read-out: Activity
[33] = tested on: OVCAR-5; assay: Growth inhibition of human OVCAR5 cells assessed as cell growth at 0.1 uM after 48 hrs by SRB assay; conditions: OVCAR-5, 48 h, read-out: Activity
[34] = read-out: LC50 (the source's name)
[35] = read-out: pLC50 (the source's name) (converted)

CCOC(=O)C[C@H]1[C@@H](O[Si](C)(C)C(C)(C)C)[C@H](n2cnc3c(NC(=O)Nc4ccccc4)ncnc32)O[C@@H]1CNC(=O)NC
growth at 0.1 µM [1]: 114%
growth at 1000 µM [2]: -2%
growth at 100 µM [3]: 38%
growth at 100 µM [4]: 53%
growth at 1000 µM [5]: -61%
growth at 10 µM [6]: 110%
growth at 10 µM [7]: 92%
GI50 ([8]; read-out: GI50): < 0.01 µM
CC50 [8, 34]: 41.2 µM
GI50 ([8]; read-out: pGI50 (converted)): < 0.01 µM
CC50 [8, 35]: 40.7 µM
GI50 ([9]; read-out: GI50): 9.1 µM
CC50 [9, 34]: > 100 µM
TGI ([9]; read-out: TGI): > 100 µM
GI50 ([9]; read-out: pGI50 (converted)): 9.12 µM
CC50 [9, 35]: > 100 µM
TGI ([9]; read-out: pTGI (converted)): > 100 µM
growth at 1 µM [10]: 95%
growth at 0.1 µM [11]: 92%
growth at 1 µM [12]: 96%
growth at 1 µM [13]: 95%
growth at 10 µM [14]: 91%
GI50 ([15]; read-out: GI50): 5.19 µM
CC50 [15, 34]: > 100 µM
TGI ([15]; read-out: TGI): > 100 µM
GI50 ([15]; read-out: pGI50 (converted)): 5.25 µM
CC50 [15, 35]: > 100 µM
TGI ([15]; read-out: pTGI (converted)): > 100 µM
CC50 [16, 34]: 12.5 µM
GI50 ([16]; read-out: pGI50 (converted)): 5.01 µM
CC50 [16, 35]: 77.6 µM
TGI ([16]; read-out: pTGI (converted)): 19.5 µM
growth at 100 µM [17]: 17%
GI50 ([18]; read-out: GI50): 4.69 µM
CC50 [18, 34]: 76 µM
TGI ([18]; read-out: TGI): 20.9 µM
GI50 ([18]; read-out: pGI50 (converted)): 4.68 µM
CC50 [18, 35]: 75.9 µM
TGI ([18]; read-out: pTGI (converted)): 20.9 µM
growth at 0.1 µM [19]: 102%
GI50 ([20]; read-out: GI50): 29 µM
CC50 [20, 34]: > 100 µM
TGI ([20]; read-out: TGI): > 100 µM
GI50 ([20]; read-out: pGI50 (converted)): 28.8 µM
CC50 [20, 35]: > 100 µM
TGI ([20]; read-out: pTGI): > 100 µM
growth at 10 µM [21]: 103%
growth at 0.1 µM [22]: 97%
growth at 100 µM [23]: 13%
growth at 0.1 µM [24]: 107%
growth at 10 µM [25]: 93%
growth at 0.1 µM [26]: 95%
growth at 1 µM [27]: 89%
GI50 ([28]; read-out: GI50): 2.25 µM
CC50 [28, 34]: 78.4 µM
TGI ([28]; read-out: TGI): 48.5 µM
GI50 ([28]; read-out: pGI50 (converted)): 2.24 µM
CC50 [28, 35]: 12.6 µM
TGI ([28]; read-out: pTGI (converted)): 4.9 µM
growth at 100 µM [29]: 24%
growth at 1 µM [30]: 102%
growth at 0.1 µM [31]: 105%
growth at 1 µM [32]: 113%
growth at 0.1 µM [33]: 104%
